Here are results for two compounds from US20240327359A1, “3-ISOXAZOLIDINONE COMPOUND, PREPARATION METHOD, HERBICIDAL COMPOSITION AND APPLICATION THEREOF” (QINGDAO KINGAGROOT CHEMICAL COMPOUND CO., LTD., priority 2021, published 2024).

Holding throughout (format): in vivo
The subject of experiment [1] is Descurainia sophia. Briefly: Weeding effect in pre-emergence stage. The note with it: 2 weeks. From the text:
(§1) The activity level criteria for plant damage (i.e., growth control rate) are as follows:
(§2) The above growth control rates are fresh weight control rates.
(§3) Monocotyledonous and dicotyledonous weed seeds (Descurainia sophia, Capsella bursa-pastoris, Abutilon theophrasti, Galium aparine, Stellaria media, Lithospermum arvense, Rorippa indica, Alopecurus aequalis, Alopecurus japonicus, Eleusine indica, Beckmannia syzigachne, Sclerochloa dura, Phleum paniculatum, Veronica didyma, Bromus japonicus, Aegilops tauschii, Phalaris arundinacea, Amaranthus retroflexus, Chenopodiaceae, Commelina communis, Sonchus arvensis, Convolvulus arvensis, Cirsium setosum, Solanumnigrum, Acalypha australis, Digitaria sanguinalis, Echinochloa crusgalli, Setaria viridis, Setaria glauca, Leptochloa chinensis, Monochoria vaginalis, Sagittaria trifolia, Scirpus juncoides, Cyperus rotundus, Cyperus iria, Cyperus difformis, Fimbristylis, Portulaca oleracea, Xanthium sibiricum, Pharbitis nil, Conyza Canadensis, etc.) and major crop seeds (wheat, corn, rice, soybean, cotton, oilseed rape, millet, sorghum, potato, sesame, ricinus, etc.) were placed in plastic pots filled with soil, then covered with 0.5-2 cm of soil, allowed to grow in a good greenhouse environment. The test plants were treated on the day of sowing. The tested compounds of the present invention were respectively dissolved in acetone, then added with Tween 80, diluted with a certain amount of water to obtain a solution of a certain concentration, and sprayed by a spray tower onto the plants. After the application, the plants were cultured for 2 weeks in the greenhouse, and then the experimental results of the weeding were recorded. The doses of the used compounds were 3, 6, 12, 24, 48 g ai./mu (1 mu=1/15 ha), and the averages were obtained from three replicates.

The subject of experiment [2] is Echinochloa crusgalli. Briefly: Weeding effect in pre-emergence stage. The note with it: 2 weeks.
Text: as §1, §2, §3

For experiment [3], the system named is Leptochloa chinensis. The experiment in a line: Weeding effect in pre-emergence stage. The note with it: 2 weeks.
Text: as §1, §2, §3

The subject of experiment [4] is Lolium perenne. The experiment in a line: Weeding effect in pre-emergence stage. As to conditions: 2 weeks.
Text: as §1, §2, §3

In experiment [5] the test system is Veronica didyma. Briefly: Weeding effect in pre-emergence stage. The note with it: 2 weeks.
Text: as §1, §2, §3

The subject of experiment [6] is Digitaria sanguinalis. Briefly: Weeding effect in post-emergence stage. The note with it: 720 g a.i./ha, 3 weeks after application.
Text: as §1, §2
(§4) Monocotyledonous and dicotyledonous weed seeds (Descurainia sophia, Capsella bursa-pastoris, Abutilon theophrasti, Galium aparine, Stellaria media, Lithospermum arvense, Rorippa indica, Alopecurus aequalis, Alopecurus japonicus, Eleusine indica, Beckmannia syzigachne, Sclerochloa dura, Phleum paniculatum, Veronica didyma, Bromus japonicus, Aegilops tauschii, Phalaris arundinacea, Amaranthus retroflexus, Chenopodiaceae, Commelina communis, Sonchus arvensis, Convolvulus arvensis, Cirsium setosum, Solanumnigrum, Acalypha australis, Digitaria sanguinalis, Echinochloa crusgalli, Setaria viridis, Setaria glauca, Leptochloa chinensis, Monochoria vaginalis, Sagittaria trifolia, Scirpus juncoides, Cyperus rotundus, Cyperus iria, Cyperus difformis, Fimbristylis, Portulaca oleracea, Xanthium sibiricum, Pharbitis nil, Conyza Canadensis, etc.) and major crop seeds (wheat, corn, rice, soybean, cotton, oilseed rape, millet, sorghum, potato, sesame, ricinus, etc.) were placed in plastic pots filled with soil, then covered with 0.5-2 cm of soil, allowed to grow in a good greenhouse environment. Two weeks after sowing, the test plants were treated in the 2-3 leaf stage. The tested compounds of the present invention were respectively dissolved in acetone, then added with Tween 80 and 1.5 liter/ha of emulsifiable concentrate of methyl oleate as synergist, diluted with a certain amount of water to obtain a solution of a certain concentration, and sprayed by a spray tower onto the plants. After the application, the plants were cultured for 3 weeks in the greenhouse, and then the experimental results of the weeding were recorded. The doses of the used compounds were 45, 90, 180, 360, 720 g a.i./ha, and the averages were obtained from three replicates.

The subject of experiment [7] is Abutilon theophrasti. Briefly: Weeding effect in post-emergence stage. As to conditions: 720 g a.i./ha, 3 weeks after application.
Text: as §1, §2, §4

The test system of experiment [8] is Alopecurus japonicus. Briefly: Weeding effect in post-emergence stage. As to conditions: 720 g a.i./ha, 3 weeks after application.
Text: as §1, §2, §4

The test system of experiment [9] is Leptochloa chinensis. The experiment in a line: Weeding effect in post-emergence stage. As to conditions: 720 g a.i./ha, 3 weeks after application.
Text: as §1, §2, §4

Experiment [10] concerns weeds. The experiment in a line: Activity test of the compositions, soil sealing treatment. As to conditions: Echinochloa crus-galli, 504 h, Echinochloa crusgalli, soil treatment (S), 21 days, read-out: Control effect (%) of B applied alone (B). As for the experimental part: (§5) The desired active ingredient B was purchased from a reagent company or synthesized by a known method. The technical materials were all dissolved in acetone and diluted with an aqueous solution containing 0.10% emulsifier Tween-80 which were to be used immediately after dilution.
Weeds are cultivated in a controllable sunlight greenhouse at 20 to 30° C., in natural light, and with relative humidity of 57% to 72%. […] The test soil was filled quantitatively to ¾ of the pots and then watered from the bottom of the pots to completely wet the soil to saturation. The test weed seeds were accelerated to just germinate, and then evenly and quantitatively sowed on the surface, then covered with 0.5-1 cm soil according to the seed size, and ready for use 72 hours after sowing.
(§6) Each treatment was repeated 4 times. Four pots with 20 weed seeds per pot were treated each time.
The well-sowed test materials were evenly placed on a platform with an area of 0.5 m^2, and solution of agents was sprayed on the soil by the 3WP-2000-type walking spray tower at a dosage of 450 kg/ha and at a spray pressure of 0.3 MPa. After all the solution was sprayed, the valve was closed. After 30 seconds, the door of the spray tower was opened, and the nutritional bowl was taken out. Then the valve was opened, and the spray tube was cleaned by spraying 50 ml of water.
(§7) A method for investigating absolute numbers was employed. Whole seedlings of survival weeds were cut off with a blade along the soil surface, and the fresh weight of the weeds was weighed with an analytical balance. For dead weeds, the fresh weight thereof was zero.
(§8) The investigation was performed 21 days after the treatment for only once in total.

For experiment [11], the system named is Cirsium setosum. Briefly: Activity test of the compositions, post-emergence treatment by foliage spray. The note with it: foliage (F). As for the experimental part:
as §5
Weeds were cultivated by a pot culture method. […] Weed seeds with plump and uniform grains were selected, soaked in lukewarm water at 25° C. for 6 hours, and germinated in a 28° C. biochemical incubator (in darkness). The weed seeds that had just germinated were evenly placed on the surface of the soil and then covered with 0.5-1 cm soil according to the sizes of seeds.
The culture was carried out in a controllable sunlight greenhouse at 20 to 30° C., in natural light, and with relative humidity of 57% to 72%.
as §6
The agents were used for only once in total in the experiment. In the stage of 1.5-2 leaves, the weeds were thinned out to maintain 10 weeds per pot. Ten weeds were kept in each treatment, then continued to be cultured until Echinochloa crus-galli var. zelayensis reached the stage of 2-3 leaves, Cirsium setosum reached the stage of 5-6 leaves, Galium aparine reached the stage of 3-4 whorl leaves, Amaranthus retroflexus reached the stage of 3-5 leaves, Echinochloa crusgalli, Lolium multiflorum and Digitaria sanguinalis reached the stage of 3 leaves with one leaf not fully expanding for further treatment.
The well-cultured test materials were evenly placed on a platform with an area of 0.5 m^2, and solution of agents was sprayed on the stems and leaves thereof by the 3WP-2000-type walking spray tower at a dosage of 450 kg/ha and at a spray pressure of 0.3 MPa. After all the solution was sprayed, the valve was closed. After 30 seconds, the door of the spray tower was opened, and the nutritional bowl was taken out. Then the valve was opened, and the spray tube was cleaned by spraying 50 ml of water. After the treatment, the weeds were routinely cultured in a greenhouse.
as §7, §8

Take `CC1(C)CON(Cc2ccccc2Cl)C1=O` [Control compound B, clomazone]: the “weeding effect in pre-emergence stage, activity level (growth control rate)” value (“weeding effect in pre-emergence stage” for short) in experiment [1] (3 g a.i./mu) is 2 (Level 2: growth control rate is greater than or equal to 15% and less than 30%); in experiment [1] (6 g a.i./mu), 3 (Level 3: growth control rate is greater than or equal to 30% and less than 40%); in experiment [1] (12 g a.i./mu), 7 (Level 7: growth control rate is greater than or equal to 70% and less than 80%); in [1] (24 g a.i./mu) it was 7 (Level 7: growth control rate is greater than or equal to 70% and less than 80%); in experiment [2] (3 g a.i./mu), 8 (Level 8: growth control rate is greater than or equal to 80% and less than 100%); in [2] (6 g a.i./mu), 9. In addition, the “weeding effect in pre-emergence stage” value in experiment [2] (12 g a.i./mu) is 9; in [2] (24 g a.i./mu), 9; in experiment [3] (3 g a.i./mu) it was 0; in [3] (6 g a.i./mu), 4 (Level 4: growth control rate is greater than or equal to 40% and less than 50%); in [3] (12 g a.i./mu), 9; in experiment [3] (24 g a.i./mu), 9. In addition, the “weeding effect in pre-emergence stage” value in experiment [4] (6 g a.i./mu) was 1 (Level 1: growth control rate is greater than 0% and less than 15%); in experiment [4] (24 g a.i./mu) it was 9; in experiment [5] (6 g a.i./mu), 8 (Level 8: growth control rate is greater than or equal to 80% and less than 100%); in experiment [5] (12 g a.i./mu) it was 9; in experiment [5] (24 g a.i./mu) it was 9. Also, the “weeding effect in post-emergence stage, activity level (growth control rate)” value in [6] is 3 (Level 3: growth control rate is greater than or equal to 40% and less than 60%); in [7], 3 (Level 3: growth control rate is greater than or equal to 40% and less than 60%); in [8], 4 (Level 4: growth control rate is greater than or equal to 60% and less than 85%); in experiment [9], 4 (Level 4: growth control rate is greater than or equal to 60% and less than 85%). Besides, the pest or weed control at 30 g/ha in experiment [10] (B at 2 g a.i./mu) turned out to be 33.2%. Moreover, in experiment [10] (B at 4 g a.i./mu), the pest or weed control at 60 g/ha was found to be 46.8%.
Consider `CC(C)N1C(=O)c2ccccc2NS1(=O)=O` [bentazon], for which the figures for the “Control effect (%) of B applied alone (B)” value in experiment [11] (B 8 g a.i./mu) and in experiment [11] (B 16 g a.i./mu) were 12.4% and 25.8%, respectively.
